Source: US20110256068A1, “CONTRAST MEDIA COMPOSITIONS” (priority 2009, published 2011)

Experiment: Viscosity at 20° C. by U-tube time of fall technique
Assay type: physicochemical
Conditions: 350 mgl/ml solution, 10 mM Tris, EDTA 0.1 mg/ml
Description: The obtained iodine concentration was 356 mgl/ml. The viscosity was determined to 28.7 mPas at 20° C. The osmolality was determined to 295 mOsm/kg.
a) Preparation of a 350 mgl/ml solution of IIIa containing 10 mM Tris and EDTA (0.1 mg/ml)
To a calibrated flask with a volume of 99.655 ml was added 71.174 g IIIa (water content 2.03%), 153 mg Trizma preset crystals (pH 7.3) and 10 mg EDTA disodium dihydrate followed by 67.330 g Milli-Q water. The mixture was brought to clear solution by intermittent agitation, gentle heating and sonication.
The clear solution with pH=6.95 was filtered through a Millipore Sterivex 0.22 um filter.
b) Preparation of a 350 mgl/ml solution of iopamidol containing 10 mM Tris and EDTA (0.1 mg/ml)
To a calibrated flask with a volume of 99.655 ml was added 72.429 g iopamidol (water content 1.7%), 157 mg Trizma preset crystals (pH 7.3) and 10 mg EDTA disodium dihydrate followed by 66.309 g Milli-Q water. The mixture was brought to clear solution by intermittent agitation, gentle heating and sonication.
The clear solution with pH=6.85 was filtered through a Millipore Sterivex 0.22 um filter.
c) The two solutions from a) and b) were mixed in different proportions according to Table 1. After thorough mixing, the viscosity was determined at 20° C. using conventional U-tube time of fall technique.

Compound	Viscosity at 20° C. (100% IIIa / 0% iopamidol by volume)	Viscosity at 20° C. (0% IIIa / 100% iopamidol by volume)
O=CN(CC(O)CN(C=O)c1c(I)c(C(=O)NCC(O)CO)c(I)c(C(=O)NCC(O)CO)c1I)c1c(I)c(C(=O)NCC(O)CO)c(I)c(C(=O)NCC(O)CO)c1I (centres unmarked) [IIIa, 5,5′-(2-hydroxypropane-1,3-diyl)bis(formylazanediyl)bis(N^1,N^3-bis(2,3-dihydroxypropyl)-2,4,6-triiodoisophthalamide)]	42.9 mPas	
C[C@H](O)C(=O)Nc1c(I)c(C(=O)NC(CO)CO)c(I)c(C(=O)NC(CO)CO)c1I [iopamidol]		15.8 mPas
